Read-outs that look alike come from different tables or passages of the source.
Experiments:
[1] = target: recombinant human Mcl-1 (residues 171-327) / Bim interaction (Homo sapiens (Human), UniProt Q07820); assay: biochemical; assay type: binding; conditions: read-out: Mcl-1 HTRF IC50
[2] = system: human multiple myeloma cell line, OPM-2; assay: Cell viability assay (OPM-2 10 FBS), CellTiter-Glo; assay type: cell-based
Summary of the method: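 3000 cells/well, RPMI 1640 + 10% FBS; serial compound dilutions, 16 h, 37 °C/5% CO2.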

[3] = TR-FRET, Mcl-1(171-327) / biotin-Bim (51-76)
[4] = Homo sapiens, OPM-2, 16 h, read-out: OPM-2 10% FBS IC50 IP, OPM-2 cells, 10% FBS, 16 h, CellTiter-Glo
[5] = read-out: OPM-2 10% FBS IC50 IP, OPM-2 cells, 10% FBS, 16 h, CellTiter-Glo

Sequence of recombinant human Mcl-1 (residues 171-327) / Bim interaction (Q07820 171-327): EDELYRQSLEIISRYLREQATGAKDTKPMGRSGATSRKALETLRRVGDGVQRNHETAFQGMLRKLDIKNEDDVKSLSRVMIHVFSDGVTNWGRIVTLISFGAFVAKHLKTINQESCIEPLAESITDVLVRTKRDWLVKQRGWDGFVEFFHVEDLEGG

SMILES | IC50 [1, 3] [nM] | IC50 [2, 4] [nM] | IC50 [2, 5] [nM] | IC50 [1] [nM]
C[C@@H]1[C@@H](C)CCC[C@](CO)(OCCN2CCOCC2)[C@@H]2CC[C@H]2CN2C[C@@]3(CCCc4cc(Cl)ccc43)COc3ccc(cc32)C(=O)NS1(=O)=O [Example 100280, (1S,3′R,6′R,7′S,11′S,12′R)-6-chloro-7′-(hydroxymethyl)-11′,12′-dimethyl-7′-(2-(4-morpholinyl)ethoxy)-3,4-dihydro-2H,15′H-spiro[naphthalene-1,22′-[20]oxa[13]thia[1,14]diazatetracyclo [14.7.2.0~3,6~.0~19,24~]pentacosa[16,18,24]trien]-15′-one 13′,13′-dioxide] | 0.368 | 305 |  | 
C[C@@H]1[C@@H](C)C/C=C/[C@@](O)(CC(=O)N(C)CCN(C)C)[C@@H]2CC[C@H]2CN2C[C@@]3(CCCc4cc(Cl)ccc43)COc3ccc(cc32)C(=O)NS1(=O)=O [Example 100281, 2-((1S,3′R,6′R,7′S,8′E,11′S,12′R)-6-chloro-7′-hydroxy-11′,12′-dimethyl-13′,13′-dioxido-15′-oxo-3,4-dihydro-2H-spiro[naphthalene-1,22′-[20]oxa[13]thia[1,14]diazatetracyclo [14.7.2.0~3,6~.0~19,24~]pentacosa[8,16,18,24]tetraen]-7′-yl)-N-(2-(dimethylamino)ethyl)-N-methylacetamide] | 0.117 |  | 352 | 
C[C@@H]1[C@@H](C)C/C=C/[C@@](O)(CC(=O)N(C)CCN(C)C)[C@@H]2CC[C@H]2CN2C[C@@]3(CCCc4cc(Cl)ccc43)COc3ccc(cc32)C(=O)NS1(=O)=O [Example 100282, 2-((1S,3′R,6′R,7′S,8′E,11′S,12′R)-6-chloro-7′-hydroxy-11′,12′-dimethyl-13′,13′-dioxido-15′-oxo-3,4-dihydro-2H-spiro[naphthalene-1,22′-[20]oxa[13]thia[1,14]diazatetracyclo [14.7.2.0~3,6~.0~19,24~]pentacosa[8,16,18,24]tetraen]-7′-yl)-N-(2-(dimethylamino)ethyl)-N-methylacetamide] | 0.268 |  | 1280 | 
C[C@@H]1[C@@H](C)CCC[C@@](O)(COS(C)(=O)=O)[C@@H]2CC[C@H]2CN2C[C@@]3(CCCc4cc(Cl)ccc43)COc3ccc(cc32)C(=O)NS1(=O)=O [Example 100283, ((1S,3′R,6′R,7′S,11′S,12′R)-6-chloro-7′-hydroxy-11′,12′-dimethyl-13′,13′-dioxido-15′-oxo-3,4-dihydro-2H-spiro[naphthalene-1,22′-[20]oxa[13]thia[1,14]diazatetracyclo [14.7.2.0~3,6~.0~19,24~]pentacosa[16,18,24]trien]-7′-yl)methyl methanesulfonate] |  |  | 806 | 0.143
C[C@@H]1[C@@H](C)CCC[C@](CO)(OCCN2CCOCC2)[C@@H]2CC[C@H]2CN2C[C@@]3(CCCc4cc(Cl)ccc43)COc3ccc(cc32)C(=O)NS1(=O)=O [Example 100284, (1S,3′R,6′R,7′S,11′S,12′R)-6-chloro-7′-(hydroxymethyl)-11′,12′-dimethyl-7′-(2-(4-morpholinyl)ethoxy)-3,4-dihydro-2H,15′H-spiro[naphthalene-1,22′-[20]oxa[13]thia[1,14]diazatetracyclo [14.7.2.0~3,6~.0~19,24~]pentacosa[16,18,24]trien]-15′-one 13′,13′-dioxide] | 0.285 |  | 396 | 
CO[C@@H](C(=O)N(C)C)[C@]1(O)/C=C/C[C@H](C)[C@@H](C)S(=O)(=O)NC(=O)c2ccc3c(c2)N(C[C@@H]2CC[C@H]21)C[C@@]1(CCCc2cc(Cl)ccc21)CO3 [Example 100285, (2R)-2-((1S,3′R,6′R,7′S,8′E,11′S,12′R)-6-chloro-7′-hydroxy-11′,12′-dimethyl-13′,13′-dioxido-15′-oxo-3,4-dihydro-2H-spiro[naphthalene-1,22′-[20]oxa[13]thia[1,14]diazatetracyclo [14.7.2.0~3,6~.0~19,24~]pentacosa[8,16,18,24]tetraen]-7′-yl)-2-methoxy-N,N-dimethylethanamide] | 0.241 | 642 |  | 
CO[C@@H](C(=O)N(C)C)[C@@]1(O)/C=C/C[C@H](C)[C@@H](C)S(=O)(=O)NC(=O)c2ccc3c(c2)N(C[C@@H]2CC[C@H]21)C[C@@]1(CCCc2cc(Cl)ccc21)CO3 [Example 100286, (2R)-2-((1S,3′R,6′R,7′R,8′E,11′S,12′R)-6-chloro-7′-hydroxy-11′,12′-dimethyl-13′,13′-dioxido-15′-oxo-3,4-dihydro-2H-spiro[naphthalene-1,22′-[20]oxa[13]thia[1,14]diazatetracyclo [14.7.2.0~3,6~.0~19,24~]pentacosa[8,16,18,24]tetraen]-7′-yl)-2-methoxy-N,N-dimethylethanamide] | 0.471 | 1580 |  | 
COC(=O)C[C@@]1(O)/C=C/C[C@H](C)[C@@H](C)S(=O)(=O)NC(=O)c2ccc3c(c2)N(C[C@@H]2CC[C@H]21)C[C@@]1(CCCc2cc(Cl)ccc21)CO3 [Example 100287, methyl ((1S,3′R,6′R,7′R,8′E,11′S,12′R)-6-chloro-7′-hydroxy-11′,12′-dimethyl-13′,13′-dioxido-15′-oxo-3,4-dihydro-2H-spiro[naphthalene-1,22′-[20]oxa[13]thia[1,14]diazatetracyclo [14.7.2.0~3,6~.0~19,24~]pentacosa[8,16,18,24]tetraen]-7′-yl)acetate] | 0.494 | 1870 |  | 
COC(=O)C[C@]1(O)/C=C/C[C@H](C)[C@@H](C)S(=O)(=O)NC(=O)c2ccc3c(c2)N(C[C@@H]2CC[C@H]21)C[C@@]1(CCCc2cc(Cl)ccc21)CO3 [Example 100288, methyl ((1S,3′R,6′R,7′S,8′E,11′S,12′R)-6-chloro-7′-hydroxy-11′,12′-dimethyl-13′,13′-dioxido-15′-oxo-3,4-dihydro-2H-spiro[naphthalene-1,22′-[20]oxa[13]thia[1,14]diazatetracyclo [14.7.2.0~3,6~.0~19,24~]pentacosa[8,16,18,24]tetraen]-7′-yl)acetate] | 0.103 | 89 |  | 
C[C@@H]1[C@@H](C)C/C=C/[C@@](O)([C@@H](O)C(=O)N(C)C)[C@@H]2CC[C@H]2CN2C[C@@]3(CCCc4cc(Cl)ccc43)COc3ccc(cc32)C(=O)NS1(=O)=O [Example 100289, (2R)-2-((1S,3′R,6′R,7′S,8′E,11′S,12′R)-6-chloro-7′-hydroxy-11′,12′-dimethyl-13′,13′-dioxido-15′-oxo-3,4-dihydro-2H-spiro[naphthalene-1,22′-[20]oxa[13]thia[1,14]diazatetracyclo [14.7.2.0~3,6~.0~19,24~]pentacosa[8,16,18,24]tetraen]-7′-yl)-2-hydroxy-N,N-dimethylethanamide] | 0.878 | 3960 |  | 
C[C@@H]1[C@@H](C)C/C=C/[C@](O)([C@H](O)C(=O)N(C)C)[C@@H]2CC[C@H]2CN2C[C@@]3(CCCc4cc(Cl)ccc43)COc3ccc(cc32)C(=O)NS1(=O)=O [Example 100290, (2S)-2-((1S,3′R,6′R,7′R,8′E,11′S,12′R)-6-chloro-7′-hydroxy-11′,12′-dimethyl-13′,13′-dioxido-15′-oxo-3,4-dihydro-2H-spiro[naphthalene-1,22′-[20]oxa[13]thia[1,14]diazatetracyclo [14.7.2.0~3,6~.0~19,24~]pentacosa[8,16,18,24]tetraen]-7′-yl)-2-hydroxy-N,N-dimethylethanamide] | 0.116 | 259 |  | 
C[C@@H]1[C@@H](C)C/C=C/[C@@](O)(C=O)[C@@H]2CC[C@H]2CN2C[C@@]3(CCCc4cc(Cl)ccc43)COc3ccc(cc32)C(=O)NS1(=O)=O [Example 100291, (1S,3′R,6′R,7′S,8′E,11′S,12′R)-6-chloro-7′-hydroxy-11′,12′-dimethyl-15′-oxo-3,4-dihydro-2H-spiro[naphthalene-1,22′-[20]oxa[13]thia[1,14]diazatetracyclo [14.7.2.0~3,6~.0~19,24~]pentacosa[8,16,18,24]tetraene]-7′-carbaldehyde 13′,13′-dioxide] | 0.137 | 281 |  | 
C[C@@H]1[C@@H](C)C/C=C/[C@](O)(CC(=O)N2CCC2)[C@@H]2CC[C@H]2CN2C[C@@]3(CCCc4cc(Cl)ccc43)COc3ccc(cc32)C(=O)NS1(=O)=O [Example 100292, (1S,3′R,6′R,7′R,8′E,11′S,12′R)-7′-(2-(1-azetidinyl)-2-oxoethyl)-6-chloro-7′-hydroxy-11′,12′-dimethyl-3,4-dihydro-2H,15′H-spiro[naphthalene-1,22′-[20]oxa[13]thia[1,14]diazatetracyclo [14.7.2.0~3,6~.0~19,24~]pentacosa[8,16,18,24]tetraen]-15′-one 13′,13′-dioxide] | 0.115 | 672 |  | 
C[C@@H]1[C@@H](C)C/C=C/[C@@](O)(C#CCN(C)C)[C@@H]2CC[C@H]2CN2C[C@@]3(CCCc4cc(Cl)ccc43)COc3ccc(cc32)C(=O)NS1(=O)=O [Example 100294, (1S,3′R,6′R,7′S,8′E,11′S,12′R)-6-chloro-7′-(3-(dimethylamino)-1-propyn-1-yl)-7′-hydroxy-11′,12′-dimethyl-3,4-dihydro-2H,15′H-spiro[naphthalene-1,22′-[20]oxa[13]thia[1,14]diazatetracyclo [14.7.2.0~3,6~.0~19,24~]pentacosa[8,16,18,24]tetraen]-15′-one 13′,13′-dioxide] | 0.118 |  | 116 | 
C[C@@H]1[C@@H](C)C/C=C/[C@@](O)(C#CCN(C)C)[C@@H]2CC[C@H]2CN2C[C@@]3(CCCc4cc(Cl)ccc43)COc3ccc(cc32)C(=O)NS1(=O)=O [Example 100295, (1S,3′R,6′R,7′S,8′E,11′S,12′R)-6-chloro-7′-(3-(dimethylamino)-1-propyn-1-yl)-7′-hydroxy-11′,12′-dimethyl-3,4-dihydro-2H,15′H-spiro[naphthalene-1,22′-[20]oxa[13]thia[1,14]diazatetracyclo [14.7.2.0~3,6~.0~19,24~]pentacosa[8,16,18,24]tetraen]-15′-one 13′,13′-dioxide] | 0.279 |  | 302 | 

— patent US10821115B2, “Compounds that inhibit Mcl-1 protein” (priority 2017, dated 2020)
